Consider three compounds from US20230278972A1, “SUBSTITUTED HALOALKYL SULFONANILIDE HERBICIDES” (FMC Corporation, priority 2020, published 2023).

Type in all cases: in vivo
The subject of test [1] is ragweed (common ragweed, Ambrosia artemisiifolia). As to the kind of experiment: Test A postemergence, ragweed. As to conditions: Postemergence, 0 to 100 scale (0 no effect, 100 complete control). The essentials:
(§1)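 Compounds in non-phytotoxic solvent with surfactant. Soil: loam/sand. Preemergence via directed soil spray after seeding; postemergence on seedlings 2–10 cm, one- to two-leaf.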

Test [2] relates to pigweed (Amaranthus retroflexus). As to the kind of experiment: Test A preemergence, pigweed. As to conditions: for Plant response rating, Pigweed: 0 to 100 scale (0 no effect, 100 complete control). The procedure, abridged:
(§2)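 Whole-plant herbicidal screen in pots of loam blended with sand. Sprays used a surfactant-containing, non-phytotoxic solvent vehicle. Timing was preemergence soil-directed at planting or postemergence at the one- to two-leaf stage (2–10 cm).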

For test [3], the system named is Foxtail, Giant (giant foxtail, Setaria faberi). As to the kind of experiment: Test A preemergence, Foxtail, Giant. As to conditions: Preemergence; for Plant response rating, Foxtail, Giant: 0 to 100 scale (0 no effect, 100 complete control). The essentials: as §1
For test [4], the system named is kochia (Bassia scoparia). The test is described as follows: Test A preemergence, kochia. As to conditions: Preemergence; for Plant response rating, Kochia: 0 to 100 scale (0 no effect, 100 complete control). The essentials: as §1
Test [5] deals with kochia (Bassia scoparia). The test is described as follows: Test A postemergence, kochia. As to conditions: Postemergence, 0 to 100 scale (0 no effect, 100 complete control). The essentials:
as §1

For the next test, the system named is corn (Zea mays). As to the kind of experiment: Test A postemergence, corn. As to conditions: Postemergence, 0 to 100 scale (0 no effect, 100 complete control). The essentials: as §1
The subject of test [6] is Ryegrass, Italian (Italian ryegrass, Lolium multiflorum). The test is described as follows: Test A preemergence, Ryegrass, Italian. As to conditions: Preemergence; for Plant response rating, Ryegrass, Italian: 0 to 100 scale (0 no effect, 100 complete control). The essentials: as §1
Test [7] relates to ragweed (common ragweed, Ambrosia artemisiifolia). As to the kind of experiment: Test A preemergence, ragweed. As to conditions: Preemergence; for Plant response rating, Ragweed: 0 to 100 scale (0 no effect, 100 complete control). The procedure, abridged:
as §1

For test [8], the system named is barnyardgrass (Echinochloa crus-galli). As to the kind of experiment: Test A preemergence, barnyardgrass. As to conditions: Preemergence; for Plant response rating, Barnyardgrass: 0 to 100 scale (0 no effect, 100 complete control). The essentials: as §1
For test [9], the system named is Foxtail, Giant (giant foxtail, Setaria faberi). The test is described as follows: Test A postemergence, Foxtail, Giant. To be noted: Postemergence, 0 to 100 scale (0 no effect, 100 complete control). The procedure, abridged: as §1
Test [10] concerns barnyardgrass (Echinochloa crus-galli). As to the kind of experiment: Test A postemergence, barnyardgrass. As to conditions: Postemergence, 0 to 100 scale (0 no effect, 100 complete control). The procedure, abridged:
as §2

Test [11] relates to Ryegrass, Italian (Italian ryegrass, Lolium multiflorum). As to the kind of experiment: Test A postemergence, Ryegrass, Italian. As to conditions: Postemergence, 0 to 100 scale (0 no effect, 100 complete control). The essentials: as §1
Test [12] deals with galium (catchweed bedstraw, Galium aparine). As to the kind of experiment: Test A postemergence, galium. As to conditions: Postemergence, 0 to 100 scale (0 no effect, 100 complete control). The procedure, abridged:
as §2

For test [13], the system named is wheat (Triticum aestivum). The test is described as follows: Test A postemergence, wheat. To be noted: Postemergence, 0 to 100 scale (0 no effect, 100 complete control). The procedure, abridged: as §2
For test [14], the system named is pigweed (Amaranthus retroflexus). As to the kind of experiment: Test A postemergence, pigweed. To be noted: Postemergence, 0 to 100 scale (0 no effect, 100 complete control). The procedure, abridged: as §1
For test [15], the system named is blackgrass (Alopecurus myosuroides). The test is described as follows: Test A postemergence, blackgrass. As to conditions: Postemergence, 0 to 100 scale (0 no effect, 100 complete control). The procedure, abridged:
as §1

[16] abbreviates: 500 g ai/ha, visual injury approx. 10 days.
Setting [17] is: 125 g ai/ha, visual injury, approx. 10 days.
[18] abbreviates: 500 g ai/ha, visual injury on 0 to 100 scale (0 no effect, 100 complete control), approximately 10 days.
The mark [19] stands for this setting: 1000 g ai/ha, visual injury, approx. 10 days.

`Cc1cc(Cl)c(C(=O)N(C)C)cc1N(S(=O)(=O)C(F)(F)F)S(=O)(=O)C(F)(F)F` [Compound 256]: the “Plant response rating, Ragweed” value in test [1] (125 g ai/ha) worked out at 40; in [1] (setting [16]), 80; in test [7] (setting [17]) it was 60. In addition, the “Plant response rating, Pigweed” value in test [2] (setting [17]) is recorded as 100; in test [14] (125 g ai/ha), 60; in test [14] (setting [16]) it was 80. In addition, the “Pigweed plant response rating” value in [2] (setting [18]) is given as 100. Further, the “Plant response rating, Foxtail, Giant” value is given as 30 in test [3] (setting [17]), 10 in test [9] (125 g ai/ha) and 0 in [9] (setting [16]). Moreover, the “Foxtail, Giant plant response rating” value in [3] (setting [18]) is 90. Moreover, the “Plant response rating, Kochia” value in the test on kochia (Bassia scoparia) [4] (setting [17]) worked out at 60; in the test with kochia (Bassia scoparia) [5] (125 g ai/ha), 50; in the test with kochia (Bassia scoparia) [5] (setting [16]), 70. In addition, the “Kochia plant response rating” value in the test on kochia (Bassia scoparia) [4] (setting [18]) is listed as 90. In addition, the “Plant response rating, Corn” value in the test on corn (Zea mays) (125 g ai/ha) amounted to 0; in the test on corn (Zea mays) (setting [16]), 20. Also, the “Plant response rating, Ryegrass, Italian” value in test [6] (setting [17]) is given as 80; in test [11] (125 g ai/ha) it was 0; in [11] (setting [16]) it was 50. Moreover, the “Ryegrass, Italian plant response rating” value in test [6] (setting [18]) is 100. The “Ragweed plant response rating” value in test [7] (setting [18]) came out at 80. The “Plant response rating, Barnyardgrass” value is reported as 90 in [8] (setting [17]), 60 in test [10] (125 g ai/ha) and 50 in test [10] (setting [16]). Moreover, in test [8] (setting [18]), the “Barnyardgrass plant response rating” value came out at 100. Besides, the “Plant response rating, Galium” value in [12] (125 g ai/ha) came to 60; in test [12] (setting [16]), 80. In addition, the “Plant response rating, Wheat” value in test [13] (125 g ai/ha) came out at 20; in [13] (setting [16]), 60. The “Plant response rating, Blackgrass” value in test [15] (125 g ai/ha) and in [15] (setting [16]) was 0 each time.
On to `COc1cc(Cl)c(NS(=O)(=O)C(F)(F)F)cc1C(=O)N1CCOCC1` [Compound 258], for which the “Plant response rating, Ragweed” value in [1] (setting [19]) is on record as 80; in [7] (1000 g ai/ha), 90. Also, the figures for the “Plant response rating, Pigweed” value in test [2] (1000 g ai/ha) and in test [14] (setting [19]) were 100 and 80, respectively. Moreover, the entries for the “Plant response rating, Foxtail, Giant” value in test [3] (1000 g ai/ha) and in [9] (setting [19]) were 90 and 50, respectively. For the same compound, the “Plant response rating, Kochia” value in the test with kochia (Bassia scoparia) [4] (1000 g ai/ha) and in the test with kochia (Bassia scoparia) [5] (setting [19]) was 90 throughout. Further, the “Plant response rating, Corn” value in the test on corn (Zea mays) (setting [19]) worked out at 10. Moreover, the “Plant response rating, Ryegrass, Italian” value in test [6] (1000 g ai/ha) and in [11] (setting [19]) was 70 in each case. Further, the “Plant response rating, Barnyardgrass” value amounted to 80 in [8] (1000 g ai/ha) and 70 in test [10] (setting [19]). Moreover, in test [12] (setting [19]), the “Plant response rating, Galium” value turned out to be 80. Moreover, the “Plant response rating, Wheat” value in test [13] (setting [19]) is reported as 30. Besides, the “Plant response rating, Blackgrass” value in test [15] (setting [19]) is given as 50.
For the compound `Cc1ccc(C(=O)N2CCCCC2)cc1NS(=O)(=O)C(F)(F)F` [Compound 259], the “Plant response rating, Ragweed” value in test [1] (setting [19]) was 10; in [7] (1000 g ai/ha) it was 70. Moreover, the “Plant response rating, Pigweed” value in test [2] (1000 g ai/ha) was found to be 80; in [14] (setting [19]), 40. In addition, the “Plant response rating, Foxtail, Giant” value in [3] (1000 g ai/ha) was 90; in test [9] (setting [19]) it was 0. The “Plant response rating, Kochia” value with kochia (Bassia scoparia) [4] (1000 g ai/ha) and in the test with kochia (Bassia scoparia) [5] (setting [19]) was 40 in each case. Besides, the “Plant response rating, Corn” value with corn (Zea mays) (setting [19]) amounted to 10. For the same compound, the “Plant response rating, Ryegrass, Italian” value is 80 in test [6] (1000 g ai/ha) and 10 in test [11] (setting [19]). The “Plant response rating, Barnyardgrass” value in test [8] (1000 g ai/ha) turned out to be 90; in test [10] (setting [19]), 0. Besides, in test [12] (setting [19]), the “Plant response rating, Galium” value was found to be 60. Besides, the “Plant response rating, Wheat” value in [13] (setting [19]) worked out at 0. Moreover, the “Plant response rating, Blackgrass” value in test [15] (setting [19]) turned out to be 50.
